The text below walks through data of patent publication US20260184663A1, “INDENE COMPOUNDS, PHARMACEUTICAL COMPOSITIONS THEREOF, AND THEIR THERAPEUTIC APPLICATIONS” (NucMito Pharmaceuticals co. Ltd., priority 2022, published 2026).

Common to all, as to format: cell-based
In experiment [1] the test system is A549 (lung adenocarcinoma). Put plainly: Antiproliferative activity (CCK-8 cell viability), A549. As to conditions: Homo sapiens, 72 h, read-out: Antiproliferative activity in cancerous cells, A549 (inhibition of cell growth); for inhibition at 3.3 µM: Compound concentration: 3.3 μM; for inhibition at 10 µM: Compound concentration: 10 μM. An outline of the steps:
(§1)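 Cells grown in DMEM (HepG2, SW480), MEM (HeLa) or F-12K (A549), each with 10% FBS, then exposed to compound at 3.3, 10 or 30 μM for 72 h at 37 °C. CCK-8 absorbance at 450 nm; viability expressed as percent of DMSO-treated cells, graded as growth inhibition bands.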

A further experiment relates to SW480 (colon cancer). Put plainly: Antiproliferative activity (CCK-8 cell viability), SW480. The conditions noted are these: Homo sapiens, 72 h, read-out: Antiproliferative activity in cancerous cells, SW480 (inhibition of cell growth); for inhibition at 3.3 µM: Compound concentration: 3.3 μM; for inhibition at 10 µM: Compound concentration: 10 μM. The essentials:
as §1

The subject of experiment [2] is A431 (epidermoid carcinoma). Nature of the experiment: Antiproliferative activity (CCK-8 cell viability), A431. As to conditions: Homo sapiens, 72 h, read-out: Antiproliferative activity in cancerous cells, A431 (inhibition of cell growth); for inhibition at 3.3 µM: A-431, Compound concentration: 3.3 μM; for inhibition at 10 µM: A-431, Compound concentration: 10 μM. An outline of the steps:
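A431 epidermoid carcinoma cells grown in DMEM with 10% FBS were plated at 2,000-5,000 cells/well in 96-well plates. After attachment they were exposed to compound at 3.3 μM, 10 μM, or 30 μM for 72 h at 37° C. Viability was then assessed by CCK-8 against DMSO vehicle-treated wells.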

For another experiment, the system named is HeLa (cervical cancer). Nature of the experiment: Antiproliferative activity (CCK-8 cell viability), HeLa. The conditions noted are these: Homo sapiens, 72 h, read-out: Antiproliferative activity in cancerous cells, HELA (inhibition of cell growth); for inhibition at 3.3 µM: Compound concentration: 3.3 μM; for inhibition at 10 µM: Compound concentration: 10 μM. The essentials: as §1

For the next experiment, the system named is HepG2 (liver cancer). Nature of the experiment: Antiproliferative activity (CCK-8 cell viability), HepG2. The conditions noted are these: Homo sapiens, 72 h, read-out: Antiproliferative activity in cancerous cells, HepG2 (inhibition of cell growth); for inhibition at 3.3 µM: Compound concentration: 3.3 μM; for inhibition at 10 µM: Compound concentration: 10 μM. The essentials: as §1

For experiment [3], the system named is B16F10 (malignant melanoma). Nature of the experiment: Antiproliferative activity (CCK-8 cell viability), B16F10. As to conditions: Mus musculus, 72 h, read-out: Antiproliferative activity in cancerous cells, B16F10 (inhibition of cell growth); for inhibition at 3.3 µM: B16-F10, Compound concentration: 3.3 μM; for inhibition at 10 µM: B16-F10, Compound concentration: 10 μM. The essentials:
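B16F10 melanoma cells grown in DMEM with 10% FBS were plated in 96-well plates at 2,000-5,000 cells/well. After attachment they were exposed to compound in medium for 72 h at 37° C. CCK-8 solution (10 μL) was then added, and after 4 h at 37° C absorbance was read at 450 nm.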

For experiment [4], the system named is MDA-MB-231 (breast cancer). Put plainly: Antiproliferative activity (CCK-8 cell viability), MDA-MB-231. As to conditions: Homo sapiens, 72 h; for inhibition at 3.3 µM: Compound concentration: 3.3 μM; for inhibition at 3.3 µM / inhibition at 10 µM: read-out: Antiproliferative activity in cancerous cells, MDA-MB-231 (inhibition of cell growth); for inhibition at 10 µM: Compound concentration: 10 μM. The essentials: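 MDA-MB-231 breast cancer cells, grown in DMEM with 10% FBS, were plated in 96-well plates at 2,000-5,000 cells/well. Once attached, they were exposed to compound and incubated at 37° C. for 72 h. Viability was then measured with CCK-8 (10 μL per well, 4 h at 37° C.) by absorbance at 450 nm, relative to DMSO vehicle wells.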

For `CC1=C(CC(=O)O)c2cc(F)ccc2/C1=C\c1ccc(COCc2ccc(C(F)(F)F)cc2)cc1` [B111, (Z)-2-(5-Fluoro-2-methyl-1-(4-(((4-(trifluoromethyl)benzyl)oxy)methyl)-benzylidene)-1H-inden-3-yl)acetic acid], the inhibition at 3.3 µM in experiment [1] is 30 to 50%; with SW480 (colon cancer), less than 30%; in experiment [2] it was less than 30%; in the experiment with HeLa (cervical cancer), not below 50%; with HepG2 (liver cancer), less than 30%; in experiment [3], 30 to 50%. The inhibition at 3.3 µM in experiment [4] fell in the range of 30 to 50%. In addition, the inhibition at 10 µM (in experiment [1]; in the experiment with SW480 (colon cancer); in experiment [2]; in the experiment with HeLa (cervical cancer); in the experiment on HepG2 (liver cancer); in experiment [3]) was not below 50% each time. The inhibition at 10 µM in experiment [4] is not below 50%.

In the case of `CC1=C(CC(=O)O)c2cc(C)ccc2/C1=C\c1ccc(CCc2ccccc2)cc1` [B147, (Z)-2-(2,5-Dimethyl-1-(4-phenethylbenzylidene)-1H-inden-3-yl)acetic acid], the inhibition at 3.3 µM in experiment [1] is less than 30%; in the experiment with SW480 (colon cancer), less than 30%; in experiment [2], not below 50%; in the experiment on HeLa (cervical cancer), less than 30%; in the experiment with HepG2 (liver cancer) it was less than 30%; in experiment [3] it was less than 30%. Also, the inhibition at 3.3 µM in experiment [4] was less than 30%. For the same molecule, the inhibition at 10 µM (in experiment [1]; in the experiment on SW480 (colon cancer); in experiment [2]; with HeLa (cervical cancer); in the experiment with HepG2 (liver cancer); in experiment [3]) was not below 50% in each case. Besides, the inhibition at 10 µM in experiment [4] is less than 30%. Moreover, in experiment [4] (Compound concentration: 30 μM, read-out: Antiproliferative activity in cancerous cells, MDA-MB-231), the inhibition at 30 µM fell in the range of 30 to 50%.

As for `CC1=C(CC(=O)O)c2cc(F)ccc2/C1=C\c1ccc(CSc2nc3ccccc3[nH]2)cc1` [B44, (Z)-2-(1-(4-(((1H-Benzo[d]imidazol-2-yl)thio)methyl)benzylidene)-5-fluoro-2-methyl-1H-inden-3-yl)acetic acid], the inhibition at 3.3 µM in experiment [1] was less than 30%; with SW480 (colon cancer), 30 to 50%; in experiment [2], less than 30%; with HeLa (cervical cancer), not below 50%; with HepG2 (liver cancer), not below 50%; in experiment [3], not below 50%. For the same molecule, the inhibition at 3.3 µM in experiment [4] is not below 50%. For the same molecule, the inhibition at 10 µM (in experiment [1]; in the experiment on SW480 (colon cancer); in experiment [2]; with HeLa (cervical cancer); in the experiment on HepG2 (liver cancer); in experiment [3]) was not below 50% throughout. Further, the inhibition at 10 µM in experiment [4] was not below 50%.

In the case of `CCc1ccc2c(c1)C(CC(=O)O)=C(C)/C2=C/c1ccc(CCc2ccccc2)cc1` [B157, (Z)-2-(5-Ethyl-2-methyl-1-(4-phenethylbenzylidene)-1H-inden-3-yl)acetic acid], the inhibition at 3.3 µM in experiment [1] was 30 to 50%; in the experiment on SW480 (colon cancer), not below 50%; in experiment [2], 30 to 50%; in the experiment with HeLa (cervical cancer), less than 30%; with HepG2 (liver cancer), less than 30%; in experiment [3] it was less than 30%. In addition, the inhibition at 3.3 µM in experiment [4] is less than 30%. The inhibition at 10 µM (in experiment [1]; with SW480 (colon cancer); in experiment [2]; in the experiment with HeLa (cervical cancer); in the experiment with HepG2 (liver cancer); in experiment [3]) was not below 50% each time. Besides, the inhibition at 10 µM in experiment [4] is less than 30%.

With `COc1cc(Oc2cccc(/C=C3/C(C)=C(CC(=O)O)c4cc(F)ccc43)c2)ccc1Cl` [C107, (Z)-2-(1-(3-(4-Chloro-3-methoxyphenoxy)benzylidene)-5-fluoro-2-methyl-1H-inden-3-yl)acetic acid], the inhibition at 3.3 µM in experiment [1] is not below 50%; in the experiment on SW480 (colon cancer) it was 30 to 50%; in experiment [2], not below 50%; in the experiment on HeLa (cervical cancer) it was less than 30%; in the experiment on HepG2 (liver cancer) it was less than 30%; in experiment [3] it was not below 50%. Besides, the inhibition at 3.3 µM in experiment [4] was not below 50%. The inhibition at 10 µM (in experiment [1]; in the experiment on SW480 (colon cancer); in experiment [2]; in the experiment on HeLa (cervical cancer); in the experiment with HepG2 (liver cancer); in experiment [3]) was not below 50% throughout. For the same molecule, the inhibition at 10 µM in experiment [4] is not below 50%.

Turning to `CC1=C(CC(=O)O)c2cc(F)ccc2/C1=C\c1cccc(Oc2ccc(O)c(Cl)c2)c1` [C103, (Z)-2-(1-(3-(3-Chloro-4-hydroxyphenoxy)benzylidene)-5-fluoro-2-methyl-1H-inden-3-yl)acetic acid], the inhibition at 3.3 µM in experiment [1] is 30 to 50%; with SW480 (colon cancer), less than 30%; in experiment [2], 30 to 50%; in the experiment with HeLa (cervical cancer), less than 30%; in the experiment with HepG2 (liver cancer), less than 30%; in experiment [3], not below 50%. Also, the inhibition at 3.3 µM in experiment [4] is less than 30%. The inhibition at 10 µM (in experiment [1]; in the experiment on SW480 (colon cancer); in experiment [2]; in the experiment on HeLa (cervical cancer); in the experiment with HepG2 (liver cancer); in experiment [3]) was not below 50% each time. The inhibition at 10 µM in experiment [4] is not below 50%.

Consider `COc1ccc2c(c1)C(CC(=O)O)=C(C)/C2=C/c1ccc(COCc2ccc(Cl)cc2)cc1` [B118, (Z)-2-(1-(4-(((4-Chlorobenzyl)oxy)methyl)benzylidene)-5-methoxy-2-methyl-1H-inden-3-yl)acetic acid], for which the inhibition at 3.3 µM in experiment [1] was 30 to 50%; in the experiment with SW480 (colon cancer), not below 50%; in experiment [2], not below 50%; in the experiment on HeLa (cervical cancer), less than 30%; in the experiment with HepG2 (liver cancer), less than 30%; in experiment [3], not below 50%. Moreover, the inhibition at 3.3 µM in experiment [4] is less than 30%. For the same molecule, the inhibition at 10 µM (in experiment [1]; with SW480 (colon cancer); in experiment [2]; in the experiment on HeLa (cervical cancer); in the experiment on HepG2 (liver cancer); in experiment [3]) was not below 50% throughout. For the same molecule, the inhibition at 10 µM in experiment [4] is less than 30%.

As to `CCc1ccc(COCc2ccc(/C=C3/C(C)=C(CC(=O)O)c4cc(F)ccc43)cc2)cc1` [B151, (Z)-2-(1-(4-(((4-Ethylbenzyl)oxy)methyl)benzylidene)-5-fluoro-2-methyl-1H-inden-3-yl)acetic acid], the inhibition at 3.3 µM in experiment [1] is 30 to 50%; in the experiment with SW480 (colon cancer), 30 to 50%; in experiment [2] it was not below 50%; in the experiment with HeLa (cervical cancer) it was less than 30%; in the experiment with HepG2 (liver cancer), less than 30%; in experiment [3], less than 30%. Moreover, the inhibition at 3.3 µM in experiment [4] was 30 to 50%. Moreover, the inhibition at 10 µM in experiment [1] is not below 50%; in the experiment on SW480 (colon cancer) it was not below 50%; in experiment [2] it was not below 50%; in the experiment with HeLa (cervical cancer), not below 50%; with HepG2 (liver cancer), not below 50%; in experiment [3], less than 30%. The inhibition at 10 µM in experiment [4] was not below 50%.
